Nine compounds from EPA's ToxValDB 9.5 can be followed below.

The structures appear in SMILES notation. Values joined by “and” are separate entries in the source; they are usually repeats but may differ in a detail not shown here. Identical values can stand only once.

Series [1] deals with Rattus norvegicus. Conditions: short-term.
In series [2] the test system is Rattus norvegicus. The settings on record: short-term, duration: 28 days, oral, gavage, CD(SD), Clinical Observation: Decreased locomotor activity Soiled fur Soft stool + Body Weight Changes: decrease + Food Consumption: decrease + ….
Series [3] deals with Rattus norvegicus. Conditions: oral.
The subject of series [4] is Rattus norvegicus. The settings on record: oral, M/F.
Setting [5] is: acute, duration: 1 hours, oral, gavage, M, inhibition of acetic acid-induced writhing response.
Setting [6] is: duration: 3 days, injection, subcutaneous, F, Sprague-Dawley, uterus: absolute blotted uterine weight.
Setting [7] is: duration: 4 days, oral, gavage, F, Wistar, female reproductive system: vaginal cornification + uterus: uterine wet weight (relative).
The mark [8] stands for this setting: duration: 4 days, oral, gavage, F, Wistar, uterus: uterine dry weight (relative).
[9] abbreviates: duration: 10 days, oral, gavage, M, BrlHan:WIST, body weight + spontaneous locomotion.
Where [10] appears, read: duration: 10 days, oral, gavage, M, BrlHan:WIST, male accessory sex gland: relative bulbourethral gland weight in the presence of TP.
The mark [11] stands for this setting: duration: 28 days, oral, gavage, F, Crj:CD, kidney: kidney weight.
[12] abbreviates: duration: 28 days, oral, gavage, F, Crj:CD, liver: liver weight + thymus: serum T3.
The mark [13] stands for this setting: duration: 28 days, oral, gavage, M, Crj:CD, body weight + brain: brain weight + food consumption + liver: liver weight + testis: testes weight + thymus: serum T3 + thymus: serum T4 + ….
[14] abbreviates: chronic, duration: 2 years, diet, lungs, liver, kidney, thyroid and thyroid hormones.
[15] abbreviates: chronic, duration: 2 years, diet, glomerulonephritis, atrophic testes, eye keratitis reduced body weight and organ weight.
The mark [16] stands for this setting: subchronic, gavage, liver toxicity.
The mark [17] stands for this setting: reproduction developmental, reduced offspring body weight.

Turning to `Oc1ccc(Cc2ccc(O)cc2)cc1` [Bis(4-hydroxyphenyl)methane], the LOEL worked out at 0.25 mg/ear in the series on Mus musculus (acute, duration: 1 hours, dermal, M, inhibition of arachidonic acid-induced ear edema); 25 mg/kg-day in the series on Mus musculus (setting [5]); 100 mg/kg-day in the series with Rattus norvegicus [1] (duration: 3 days, injection, subcutaneous, F, Crj:CD, uterus: uterine dry weight (absolute) + uterus: uterine dry weight (relative) + uterus: uterine wet weight (absolute) + uterus: uterine wet …); 200 mg/kg-day in the series with Rattus norvegicus [1] (setting [6]); 100 mg/kg-day with Rattus norvegicus [1] (setting [7]); 200 mg/kg-day with Rattus norvegicus [1] (setting [8]). The LOEL with Rattus norvegicus [1] (duration: 5 days, injection, subcutaneous, F, Wistar, uterus: uterine dry weight (relative)) came to 0.5 mg/day; with Rattus norvegicus [1] (setting [9]) it was 1000 mg/kg-day; with Rattus norvegicus [1] (setting [10]) it was 200 mg/kg-day; with Rattus norvegicus [1] (duration: 28 days, oral, gavage, F, Crj:CD, body weight + brain: brain weight + food consumption + thymus: serum T4) it was 20 mg/kg-day; with Rattus norvegicus [1] (setting [11]) it was 100 mg/kg-day; with Rattus norvegicus [1] (setting [12]) it was 500 mg/kg-day. Besides, the LOEL with Rattus norvegicus [1] (setting [13]) is 500 mg/kg-day. For the same compound, the NOEL in the series with Mus musculus (setting [5]) stood at 12.5 mg/kg-day; with Rattus norvegicus [1] (setting [6]), 20 mg/kg-day; in the series with Rattus norvegicus [1] (setting [7]), 50 mg/kg-day; in the series on Rattus norvegicus [1] (setting [8]), 100 mg/kg-day; in the series with Rattus norvegicus [1] (setting [9]), 200 mg/kg-day; in the series with Rattus norvegicus [1] (duration: 10 days, oral, gavage, M, BrlHan:WIST, body weight in the presence of TP + body weight the absence of TP + male accessory sex gland: relative bulbourethral gland weight in the …), 1000 mg/kg-day. Moreover, the NOEL was 1000 mg/kg-day in the series with Rattus norvegicus [1] (duration: 10 days, oral, gavage, M, BrlHan:WIST, male accessory sex gland: BC/LA weight (relative) + male accessory sex gland: Cowper's gland weight (relative) + male accessory sex gland: …); 50 mg/kg-day in the series on Rattus norvegicus [1] (setting [10]); 20 mg/kg-day in the series with Rattus norvegicus [1] (setting [11]); 100 mg/kg-day with Rattus norvegicus [1] (setting [12]); 100 mg/kg-day with Rattus norvegicus [1] (setting [13]); < 20 mg/kg-day in the series on Rattus norvegicus [2] (F). The NOEL in the series with Rattus norvegicus [2] (M) was 20 mg/kg-day.
Regarding `COC(=O)c1c(Cl)c(Cl)c(C(=O)OC)c(Cl)c1Cl` [Chlorthal-dimethyl], the NOAEL with Rattus norvegicus [3] (chronic, duration: 2 years, diet, Kidney: Effects + Liver: Effects + Lung: Effects + Thyroid hormones: Effects + Thyroid: Effects) came to 1 mg/kg-day; in the series on Rattus norvegicus [4] (setting [14]) it was 1 mg/kg-day. For the same compound, the LOAEL in the series on Rattus norvegicus [4] (setting [14]) was determined as 10 mg/kg-day.
`Cn1cc(-c2ccccc2)c(=O)c(-c2cccc(C(F)(F)F)c2)c1` [1-Methyl-3-phenyl-5-(3-(trifluoromethyl)phenyl)-4-pyridone]: the NOEL in the series with Rattus norvegicus [3] (chronic, duration: 2 years, diet, Kidney: Glomerulonephritis + Organs: Decreased weight + Testis: Atrophy + Whole body: Decreased weight) was 15.6 mg/kg-day. For the same compound, in the series with Rattus norvegicus [4] (setting [15]), the LEL came out at 25 mg/kg-day and the NOEL was determined as 8 mg/kg-day.
As to `CCOP(=S)(OCC)Oc1cc(Cl)c(SC)cc1Cl` [Chlorthiophos], in the series with Rattus norvegicus [3] (chronic, duration: 2 years, diet, None Observed), the NOAEL was 0.08 mg/kg-day.
For `O=C(O)C(F)(F)C(F)(F)OC(F)(F)F` [Perfluoro-3-methoxypropanoic acid], the NOAEL in the series on Mus musculus (subchronic, duration: 30 days, oral, gavage, F, C57BL/6, Cardiovascular: Heart: Heart Weight, Relative + Hepatic: Liver: Liver Weight, Relative + Immune: Multi-Organ: Immunoglobulin M (IgM), Serum…) amounted to 50 mg/kg-day; in the series with Mus musculus (subchronic, duration: 30 days, oral, gavage, M, C57BL/6, Cardiovascular: Heart: Heart Weight, Relative + Hepatic: Liver: Liver Weight, Relative + Immune: Multi-Organ: Immunoglobulin M (IgM), Serum…), 50 mg/kg-day.
In the series with Rattus norvegicus [3] (subchronic, duration: 13 weeks, gavage, Liver: Effects), `CCNc1nc(NC(C)C)nc(SC)n1` [Ametryn] yielded an NOEL of 10 mg/kg-day. Also, in the series with Rattus norvegicus [4] (setting [16]), the LEL is 100 mg/kg-day; the NOEL is 8.6 mg/kg-day and 10 mg/kg-day.
Compound `[Be]` [Beryllium] returned an NOAEL in the series on Rattus norvegicus [3] (chronic, drinking water, None Observed) of 0.54 mg/kg-day.
As for `O=C1CCCCCN1` [Caprolactam], in the series on Rattus norvegicus [3] (subchronic, duration: 90 days, diet, Kidney: Effects), the no-observed-adverse-effect level (NOAEL) is 50 mg/kg-day. For the same compound, in the series with Rattus norvegicus [4] (setting [17]), the LOAEL came to 250 mg/kg-day and the NOAEL came out at 50 mg/kg-day.
On to `O=C(O)CC(F)(F)C(F)(F)C(F)(F)C(F)(F)C(F)(F)C(F)(F)F` [2-(Perfluorohexyl)ethanoic acid], for which the no observed adverse effect level (NOAEL) in the series on Mus musculus (short-term, duration: 28 days, oral, gavage, M, CD1, Liver: Alanine Aminotransferase (ALT) + Liver: Albumin (A) + Liver: Alkaline Phosphatase (ALP) + Liver: Aspartate Aminotransferase (AST) + …) was determined as 5 mg/kg-day. In the series with Mus musculus (short-term, duration: 28 days, oral, gavage, M, CD1, Liver: Total Cholesterol (CHOL)), this compound displayed an LOAEL of 5 mg/kg-day.

One may read the NOAEL as the highest tested level that showed no adverse finding. As a reminder, the LOAEL is the lowest tested level that showed an adverse finding.
